In PMC3684244 (Harmful algae, 2013):
Values joined by “and” are separate entries in the source; they are usually repeats but may differ in a detail not shown here. Equal values may be shown once.

Tests used:
[1] = system: brevenal site on voltage-sensitive sodium channels (VSSCs), rat brain synaptosomes; format: binding
[2] = target: site 5 on voltage-sensitive sodium channels (VSSCs), rat brain synaptosomes; settings: read-out: Ki for inhibition of [^3H]-PbTx-3 binding
[3] = system: site 5 on voltage-sensitive sodium channels (VSSCs), rat brain synaptosomes; settings: cited from earlier work

Row | Structure (SMILES) | Inhibition of [^3H]-brevenol binding (maximum concentration tested) [1] | further results
1 | COc1ccc(C(=O)O[C@H]2CC[C@@]3(C)[C@@H]4CC[C@H]5[C@]6(O)C[C@H](O)[C@@]7(O)[C@@H](CN8C[C@@H](C)CC[C@H]8[C@@]7(C)O)[C@]6(O)C[C@@]53O[C@]24O)cc1OC [Veratridine] | No displacement (10 ! M) | –
2 | NC1=N[C@H](O)[C@H]2[C@H]3O[C@]4(O)O[C@@H]([C@@H](O)[C@@]2(N1)[C@@H]4O)[C@]3(O)CO [Tetrodotoxin] | No displacement (10 ! M) | –
3 | CC1(C)[C@H](C(=O)O[C@H](C#N)c2cccc(Oc3ccccc3)c2)[C@@H]1C=C(Br)Br [Deltamethrin] | No displacement (100 ! M) | –
4 | C=C/C=C\CC[C@H]1O[C@H]2CC[C@@]3(C)O[C@H]4[C@@H](O)C[C@@]5(C)O[C@@H](CC/C=C(C)/C(C)=C/C=O)[C@@H](C)C[C@H]5O[C@@H]4C[C@@H]3O[C@@H]2CC[C@@]1(C)O [Brevenal, brevenal] | – | Ki ([1]; read-out: Ki for inhibition of [^3H]-brevenol binding): 75 nM and 74.8 nM; Ki [2]: 98 nM; Affinity for inhibiting brevetoxin binding relative to brevetoxins (fold lower) [3]: approximately 100 fold
5 | CCN1C[C@]2(COC)[C@H](O)C[C@H](OC)[C@@]34[C@@H]5C[C@@]6(O)[C@H](OC(=O)c7ccccc7)[C@@H]5[C@@](OC(C)=O)([C@@H]([C@H](OC)[C@H]23)[C@@H]14)[C@@H](O)[C@@H]6OC [aconitine] | No displacement (10 ! M) | –
6 | N=C(N)NC(=O)c1nc(Cl)c(N)nc1N [Amiloride] | No displacement (10 ! M) | –
